From patent publication US20210276978A1, “INHIBITORS OF HISTONE DEACETYLASE” (Alkermes, Inc., priority 2018, published 2021)

Assays:
HDAC2 = biological target: T1, HDAC2 (Homo sapiens, UniProt Q92769); assay: HDAC2 enzymatic inhibition assay in SH-SY5Y cell lysate with an exogenous substrate (HDAC-Glo 2); type: cell-based; details: for IC50: SH-SY5Y cells
T1 construct: host or cells: SH-SY5Y cells
Description: HDAC2 Enzymatic Inhibition Assay in SH-SY5Y Cell Lysate with an Exogenous Substrate
SH-SY5Y cells (Sigma) were cultured in Eagle's Modified Essential Medium supplemented with 10% fetal bovine serum and pen/strep. Twenty-four hours prior to compound dosing 20 uL of cells were plated in white 384 well plates at a density of 1,500 cells/well. Compounds were serially diluted in neat DMSO and then diluted 1:100 v/v into media without FBS and mixed. Media was removed from the plated cells and the diluted compounds in serum free media (1% v/v final DMSO) were added and incubated at 37.0 for five hours. Ten uL of HDAC-Glo 2 reagent with 0.1% Triton X-100 was then added, the plate was mixed and allowed to develop at room temperature for 100 minutes. Plates were then read with a Spectramax LMax luminometer employing a 0.4 s integration time. Dose response curves were constructed with normalized data where CI-994 at 100 uM was defined as 100% inhibition and DMSO alone as 0% inhibition.
In the table, “A” indicates a IC50 value of less than 0.5 μM; “B” a IC50 value from 0.5 μM to 1.0 μM; “C” a IC50 value of greater than 1.0 μM and less than or equal to 2.0 μM; and “D” indicates an IC50 value of greater than 2.0 μM. NT=Not Tested.

Full length Human HDAC2 = biological target: T2, Full length Human HDAC2 (Homo sapiens, UniProt Q92769); assay: HDAC2 enzymatic assay (deacetylation of FAM-labeled peptide substrate, microfluidic electrophoresis); type: biochemical; details: 1 uM substrate peptide
T2 construct: Full length Human HDAC2 with; FLAG (C); host or cells: baculovirus expression system
Description: (§1) HDAC2 and HDAC1 Enzymatic Assay (HDAC2 and HDAC1 IC50 Data)
(§2) The following describes an assay protocol for measuring the deacetylation of a peptide substrate by HDAC2 or HDAC1.
(§3) HDAC protein composition and respective substrate peptides are summarized below.
(§4) HDAC reactions are assembled in 384 well plates (Greiner) in a total volume of 20 µL as following:
(§5) HDAC proteins are pre-diluted in the assay buffer comprising: 100 mM HEPES, pH 7.5, 0.1% BSA, 0.01% Triton X-100, 25 mM KCl and dispensed into 384 well plate (10 uL per well).
(§6) Test compounds are serially pre-diluted in DMSO and added to the protein samples by acoustic dispensing (Labcyte Echo). Concentration of DMSO is equalized to 1% in all samples.
(§7) Control samples (0%-inhibition in the absence of inhibitor, DMSO only) and 100%-inhibition (in the absence of enzyme) are assembled in replicates of four and used to calculate the %-inhibition in the presence of compounds.
(§8) At this step compounds can be pre-incubated with enzyme if desired.
(§9) The reactions are initiated by addition of 10 uL of the FAM-labeled substrate peptide pre-diluted in the same assay buffer. Final concentration of substrate peptide is 1 uM (HDAC1-2). The reactions are allowed to proceed at room temperature. Following incubation, the reactions are quenched by addition of 50 µL of termination buffer (100 mM HEPES, pH7.5, 0.01% Triton X-100, 0.1% SDS). Terminated plates are analyzed on a microfluidic electrophoresis instrument (Caliper LabChip® 3000, Caliper Life Sciences/Perkin Elmer) which enables electrophoretic separation of de-acetylated product from acetylated substrate. A change in the relative intensity of the peptide substrate and product is the parameter measured. Activity in each test sample is determined as the product to sum ratio (PSR): P/(S+P), where P is the peak height of the product, and S is the peak height of the substrate. Percent inhibition (Pinh) is determined using the following equation: Pinh=(PSR0% inh−PSRcompound)/(PSR0% inh−PSR100% inh)*100, in which: PSRcompound is the product/sum ratio in the presence of compound, PSR0% inh is the product/sum ratio in the absence of compound and the PSR100% inh is the product/sum ratio in the absence of the enzyme. To determine IC50 of compounds (50%-inhibition) the %-inh data (Pinh versus compound concentration) are fit by a 4 parameter sigmoid dose-response model using XLfit software (IDBS).
(§10) In the table, “A” indicates a IC50 value of less than 0.5 “B” a IC50 value from 0.5 μM to 1.0 μM; “C” a IC50 value of greater than 1.0 μM and less than or equal to 2.0 μM; and “D” indicates an IC50 value of greater than 2.0 NT=Not Tested.

Full length Human HDAC1 = biological target: T3, Full length Human HDAC1 (Homo sapiens, UniProt Q13547); assay: HDAC1 enzymatic assay (deacetylation of FAM-labeled peptide substrate, microfluidic electrophoresis); type: biochemical; details: 1 uM substrate peptide
T3 construct: Full length Human HDAC1 with; His (C); FLAG (C); host or cells: baculovirus expression system
Description: as §1, §2, §3, §4, §5, §6, §7, §8, §9, §10

[1] = five hours incubation, HDAC-Glo 2 reagent, class symbols
[2] = HDAC-Glo 2, numeric values, Table 4
[3] = HDAC2 SH-SY5Y cell lysate assay

T2 sequence (Q92769 whole entry): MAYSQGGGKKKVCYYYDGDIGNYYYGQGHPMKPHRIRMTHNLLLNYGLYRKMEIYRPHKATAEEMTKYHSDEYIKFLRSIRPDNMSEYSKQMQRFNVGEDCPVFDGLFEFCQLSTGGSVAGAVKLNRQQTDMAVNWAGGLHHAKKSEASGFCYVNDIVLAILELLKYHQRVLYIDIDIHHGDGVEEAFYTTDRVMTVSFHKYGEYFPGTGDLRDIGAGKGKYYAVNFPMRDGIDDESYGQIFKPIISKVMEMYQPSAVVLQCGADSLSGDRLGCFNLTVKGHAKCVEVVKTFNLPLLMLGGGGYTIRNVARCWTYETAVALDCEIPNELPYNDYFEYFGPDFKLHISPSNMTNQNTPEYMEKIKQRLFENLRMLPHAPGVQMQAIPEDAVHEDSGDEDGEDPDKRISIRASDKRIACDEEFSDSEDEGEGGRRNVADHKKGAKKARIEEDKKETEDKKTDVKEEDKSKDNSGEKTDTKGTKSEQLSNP
T1 sequence (Q92769 whole entry): as above
T3 sequence (Q13547 whole entry): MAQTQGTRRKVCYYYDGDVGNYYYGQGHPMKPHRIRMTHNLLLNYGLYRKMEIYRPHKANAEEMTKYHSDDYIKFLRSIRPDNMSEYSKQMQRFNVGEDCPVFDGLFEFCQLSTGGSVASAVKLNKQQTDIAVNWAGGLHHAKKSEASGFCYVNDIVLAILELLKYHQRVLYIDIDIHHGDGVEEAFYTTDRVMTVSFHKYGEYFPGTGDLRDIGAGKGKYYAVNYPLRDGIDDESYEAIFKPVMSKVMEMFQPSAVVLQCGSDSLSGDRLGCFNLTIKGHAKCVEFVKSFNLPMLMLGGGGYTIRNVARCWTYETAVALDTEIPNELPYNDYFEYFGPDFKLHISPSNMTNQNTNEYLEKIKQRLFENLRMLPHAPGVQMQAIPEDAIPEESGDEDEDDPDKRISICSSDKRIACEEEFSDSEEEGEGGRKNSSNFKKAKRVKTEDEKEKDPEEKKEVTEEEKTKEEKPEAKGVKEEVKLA

Compound | IC50 (HDAC2; [1]) | IC50 (Full length Human HDAC2) | IC50 (Full length Human HDAC1) | IC50 (HDAC2; [2]) | potency compared with Comparators A-C (HDAC2; [3]) | fold more potent than Comparator A (HDAC2; [3])
Nc1ccc(-c2ccc(F)cc2)nc1NC(=O)N1CCC(F)(c2ncc(F)cn2)C1 (single isomer, unassigned) [Compound 53] | 0.5 to 1 µM | 0.5 to 1 µM | < 0.5 µM |  |  | 
Nc1ccc(-c2ccc(F)cc2)nc1NC(=O)N1CCC(F)(c2ncccn2)C1 (single isomer, unassigned) [Compound 54] | 1 to 2 µM | 0.5 to 1 µM | 0.5 to 1 µM |  |  | 
Nc1ccc(-c2ccc(F)cc2)nc1NC(=O)N1CCC(F)(c2ncccn2)C1 (single isomer, unassigned) [Compound 55] | 0.5 to 1 µM | < 0.5 µM | < 0.5 µM |  |  | 
Nc1ccc(-c2ccc(F)cc2F)nc1NC(=O)N1CCC(c2ccccn2)C1 (stereo not drawn) [Compound 1] | > 2 µM | 1 to 2 µM | 0.5 to 1 µM |  |  | 
Nc1ccc(-c2ccc(F)cc2F)nc1NC(=O)N1CCC(c2cccnc2)C1 (stereo not drawn) [Compound 2] | > 2 µM | > 2 µM | 1 to 2 µM |  |  | 
Nc1ccc(-c2ccc(F)cc2F)nc1NC(=O)N1CCC(c2ccncc2)C1 (stereo not drawn) [Compound 3] | > 2 µM | > 2 µM | > 2 µM |  |  | 
Nc1ccc(-c2ccc(F)cc2F)nc1NC(=O)N1CCC(c2ccccc2)C1 (stereo not drawn) [Compound 4] | > 2 µM | 1 to 2 µM | 0.5 to 1 µM |  |  | 
Nc1ccc(-c2ccc(F)cc2F)nc1NC(=O)N1CCC(c2cccnn2)C1 (stereo not drawn) [Compound 9] | 1 to 2 µM | 1 to 2 µM | 0.5 to 1 µM |  |  | 
Cc1ccnc(C2CCN(C(=O)Nc3nc(-c4ccc(F)cc4F)ccc3N)C2)n1 (stereo not drawn) [Compound 10] | 1 to 2 µM | 0.5 to 1 µM | < 0.5 µM |  |  | 
Nc1ccc(-c2ccc(F)cc2F)nc1NC(=O)N1CCC(c2ncc(F)cn2)C1 (stereo not drawn) [Compound 14] | 1 to 2 µM | 0.5 to 1 µM | 0.5 to 1 µM |  |  | 
Cc1cnc(C2CCN(C(=O)Nc3nc(-c4ccc(F)cc4F)ccc3N)C2)cn1 (stereo not drawn) [Compound 18] | 0.5 to 1 µM | 0.5 to 1 µM | 0.5 to 1 µM | 0.55 µM |  | 
Nc1ccc(-c2ccc(F)cc2)nc1NC(=O)N1CCC(c2ncccn2)C1 (stereo not drawn) [Compound 19] | < 0.5 µM | < 0.5 µM | < 0.5 µM | 0.421 µM | greater potency | 
Nc1ccc(-c2ccc(F)cc2)nc1NC(=O)N1CCC(c2ncc(F)cn2)C1 (stereo not drawn) [Compound 20] | 1 to 2 µM | 0.5 to 1 µM | < 0.5 µM | 1.13 µM | greater potency | > 2 fold
Nc1ccc(-c2ccccc2F)nc1NC(=O)N1CCC(c2ncc(F)cn2)C1 (stereo not drawn) [Compound 21] | 1 to 2 µM | 1 to 2 µM | 0.5 to 1 µM |  |  | 
Nc1ccc(-c2ccc(F)cc2F)nc1NC(=O)N1CCC(Oc2ncccn2)C1 (stereo not drawn) [Compound 23] | > 2 µM | > 2 µM | > 2 µM |  |  | 
Nc1ccc(-c2ccc(F)cc2F)nc1NC(=O)N1CCC(Cc2ncccn2)C1 (stereo not drawn) [Compound 24] | 1 to 2 µM | 1 to 2 µM | 1 to 2 µM | 1.42 µM |  | 
Nc1ccc(-c2ccc(F)cc2F)nc1NC(=O)N1CCC(Cc2cccnn2)C1 (stereo not drawn) [Compound 26] | 0.5 to 1 µM | 1 to 2 µM | 1 to 2 µM | 0.535 µM |  | 
Nc1ccc(-c2ccc(F)cc2F)nc1NC(=O)N1CCC(F)(c2ncccn2)C1 (stereo not drawn) [Compound 29] | 0.5 to 1 µM | 0.5 to 1 µM | < 0.5 µM | 0.768 µM |  | 
Cn1ccnc1CC1CCN(C(=O)Nc2nc(-c3ccc(F)cc3F)ccc2N)C1 (stereo not drawn) [Compound 36] | 0.5 to 1 µM | 0.5 to 1 µM | < 0.5 µM |  |  | 
Nc1ccc(-c2cccs2)nc1NC(=O)N1CCC(c2ncccn2)C1 (stereo not drawn) [Compound 41] | 0.5 to 1 µM | 0.5 to 1 µM | < 0.5 µM |  |  | 
Nc1ccc(-c2ccc(F)s2)nc1NC(=O)N1CCC(F)(c2ncccn2)C1 (stereo not drawn) [Compound 45] | 0.5 to 1 µM | 1 to 2 µM | 0.5 to 1 µM |  |  | 
Cc1cnc(C2CCN(C(=O)Nc3nc(-c4ccc(F)cc4)ccc3N)C2)o1 (stereo not drawn) [Compound 46] | > 2 µM | 1 to 2 µM | 0.5 to 1 µM |  |  | 
Nc1ccc(-c2ccccc2F)nc1NC(=O)N1CCC(c2ncccn2)C1 (stereo not drawn) [Compound 48] | 1 to 2 µM | 1 to 2 µM | 0.5 to 1 µM |  |  | 
Nc1ccc(-c2cccs2)nc1NC(=O)N1CCC(c2ncc(F)cn2)C1 (stereo not drawn) [Compound 49] | 1 to 2 µM | 1 to 2 µM | < 0.5 µM |  |  | 
